Results: patent publication US6794397B2, “Substituted nicotinamides and analogs as activators of caspases and inducers of apoptosis and the use thereof” (Cytovia, Inc., priority 2000, dated 2004)
Entries after “also recorded” stand apart in the source; their conditions may differ. Where two headings read alike, the source gives them in different places.

How the values were obtained:
T47D [1] = experiment: Cell cycle arrest and apoptosis in T47D cells (propidium iodide flow cytometry); assay type: cell-based, Human; settings: 48 h
Experimental: T47D, a breast cancer cell line, was maintained and harvested as described in Example 71. […] As a control, cells were also incubated with equivalent amount of solvent as control (DMSO). Cells were harvested at 1,200 rpm and washed twice with 5 mM EDTA/PBS. Cells were then resuspended in 300 μl EDTA/PBS and 700 μl of 100% ethanol, vortexed and incubated at room temperature for 1 h. Samples were spun down at 1,200 rpm for 5 min and the supernatant was removed. A solution containing 100 μg/ml of propidium iodide and 1 mg/ml of RNAse A (fresh) was added to the samples and incubated for 1 h at room temperature. Samples were then transferred to 12×75 mm polystyrene tubes and analyzed on a flow cytometer. All flow cytometry analyses were performed on FACScalibur (Becton Dickinson) using Cell Quest analysis software. On the x-axis is plotted the fluorescence intensity and on the y-axis is plotted the number of cells with that fluorescence intensity. […] An increase in the sub-diploid DNA content of cells (marker M1 region, FIG. 3) is also seen to increase from 2% to 25% with compound treatment. The sub-diploid amount of DNA (M1) is indicative of apoptotic cells which have undergone DNA degradation or fragmentation.

T47D [2] = experiment: Caspase cascade activation assay (N-(Ac-DEVD)-N'-ethoxycarbonyl-R110 fluorogenic substrate) in T47D cells; assay type: cell-based, Human; settings: 24 h incubation; for EC50 / EC50 (nM) caspase potency: sigmoidal dose-response; for EC50: read-out: EC50 (nM) caspase potency; for Caspase activity Ratio: ratio of net RFU of test compound to control, 0.16 to 10 μM final
Experimental: (§1) Human breast cancer cell lines T47D and ZR75-1 were grown according to media component mixtures designated by American Type Culture Collection +10% FCS (Invitrogen Corporation, Life Technologies Division), in a 5% CO2 −95% humidity incubator at 37° C. T47D and ZR75-1 cells were maintained at a cell density between 30 and 80% confluency at a cell density of 0.1 to 0.6×10^6 cells/ml. Cells were harvested at 600xg and resuspended at 0.65×10^6 cells/ml into appropriate media +10% FCS. An aliquot of 45 μl of cells was added to a well of a 96-well microtiter plate containing 5 μl of a 10% DMSO in RPMI-1640 media solution containing 1.6 to 100 μM of N-(4-methoxy-2-nitrophenyl)-3-pyridinecarboxamide or other test compound (0.16 to 10 μM final). An aliquot of 45 μl of cells was added to a well of a 96-well microtiter plate containing 5 μl of a 10% DMSO in RPMI-1640 media solution without test compound as the control sample. The samples were mixed by agitation and then incubated at 37 C. for 24 h in a 5% CO2 −95% humidity incubator. After incubation, the samples were removed from the incubator and 50 μl of a solution containing 20 μM of N-(Ac-DEVD)-N′-ethoxycarbonyl-R110 (SEQ ID NO: 1) fluorogenic substrate (Cytovia, Inc.; WO99/18856), 20% sucrose (Sigma), 20 mM DTT (Sigma), 200 mM NaCl (Sigma), 40 mM Na PIPES buffer pH 7.2 (Sigma), and 500 μg/ml lysolecithin (Calbiochem) was added. The samples were mixed by agitation and incubated at room temperature. Using a fluorescent plate reader (Model 1420 Wallac Instruments), an initial reading (T=0) was made approximately 1-2 min after addition of the substrate solution, employing excitation at 485 nm and emission at 530 nm, to determine the background fluorescence of the control sample. After the 3 h incubation, the samples were read for fluorescence as above (T=3 h).
(§2) The Relative Fluorescence Unit values (RFU) were used to calculate the sample readings as follows:
(§3) RFU(T=3h)−Control RFU(T=0)=Net RFU(T=3h).
(§4) The activity of caspase cascade activation was determined by the ratio of the net RFU value for N-(4-methoxy-2-nitrophenyl)-3-pyridinecarboxamide or other test compound to that of control samples. The EC50 (nM) was determined by a sigmoidal dose-response calculation (Prism 2.0, GraphPad Software Inc.).

HeLa cells = experiment: Inhibition of proliferation / colony formation of HeLa cells; assay type: cell-based; settings: Homo sapiens, 48 hr treatment, colonies counted after 5-7 days
Experimental: HeLa cells were grown according to media component mixtures designated by American Type Culture Collection +10% FCS (Invitrogen Corporation, Life Technologies Division), in a 5% CO2 −95% humidity incubator at 37° C. In a well of a 96 well plate, 30,000 cells were seeded and treated with compound at the indicated concentrations for 48 hr in a 5% CO2−95% humidity incubator at 37° C. Control wells were treated with the same amount of solvent (DMSO) as the compound samples. After the indicated treatment time, the supernatant was removed to a sterile culture tube and the wells washed with phosphate buffered saline, and the adherent cells trypsinized for 5 min. The trypsinzed cells were added to the culture supernatant, cells were collected (1,200 rpm, 10 min), washed with phosphate buffered saline, and resuspended in fresh media. The cells were counted for trypan blue negative cells, and the cells were diluted with fresh media to 1,000 cells/ml. To a well of a 24-well plate, 0.1 ml of the cell suspension was added along with 1 ml of fresh media (cell suspensions were passed through a 22G needle several times just before plating to form single cell suspensions). […] Colonies are counted when the sizes reached greater than 50 cells per colony. […] Colonies are rinsed with water and the colonies counted and the fraction surviving expressed as the percentage of the number of control colonies.

ZR75-1 = experiment: Caspase cascade activation assay (N-(Ac-DEVD)-N'-ethoxycarbonyl-R110 fluorogenic substrate) in ZR75-1 cells; assay type: cell-based, Human; settings: for EC50 / EC50 (nM) caspase potency: sigmoidal dose-response; for EC50: read-out: EC50 (nM) caspase potency; for Caspase activity Ratio: ratio of net RFU of test compound to control, 0.16 to 10 μM final
Experimental: as §1, §2, §3, §4

Jurkat cells [3] = experiment: Nuclear fragmentation in Jurkat cells (Syto16 staining); assay type: cell-based; settings: 5 μM, 24 h, Syto16 stain
Experimental: The ability of N-(4-methoxy-2-nitrophenyl)-3-pyridinecarboxamide to induce nuclear fragmentation was tested by treatment of Jurkat cells with the test compound followed by staining of the nucleus with Sytol6, a fluorescent DNA dye (Molecular Probes, Eugene, Oreg.). The nuclei of Jurkat cells treated with vehicle control (DMSO) are seen to be round with dispersed chromatin that is moderately stained with Sytol6 (FIG. 1A).

Jurkat cells [4] = experiment: Mitotic arrest in Jurkat cells (mitotic figures counted); assay type: cell-based; settings: 0.02 μM to 5 μM, 6 h
Experimental: Jurkat cells were incubated with a range of concentrations of N-(4-methoxy-2-nitrophenyl)-3-pyridinecarboxamide (0.02 μM to 5 μM) for 6 h under normal growth conditions; control cultures were treated with DMSO vehicle. The cells were then treated for 20 min. with 800 nM Syto 16 (Molecular Probes, Eugene, OR). Cytospin preparations were then prepared and the samples were viewed by fluorescent microscopy using a fluorescein filter set. For each concentration of test compound, the number of mitotic figures were counted and expressed as a percentage of the total number of cells. Three fields from each condition were evaluated and the mean and SEM were calculated and plotted as a function of drug concentration (FIG. 2).

[5] = Homo sapiens, ZR-75-1, 24 h incubation

Row | EC50 (T47D [2]; Homo sapiens) [nM] | EC50 (ZR75-1; [5]) [nM] | Structure (SMILES) | Caspase activity Ratio (T47D [2]) | Caspase activity Ratio (ZR75-1; 24 h incubation) | further results
1 | 153 | 77 | CCOc1ccc(NC(=O)c2ccc(Cl)nc2)c([N+](=O)[O-])c1 [Example 8, 6-Chloro-N-(4-ethoxy-2-nitrophenyl)-3-pyridinecarboxamide] | 5.0 | 6.3 | G1 (M2) cells (T47D [1]; 1 μM): a reduction in the G1(M2); G2/M phase (M4) cells (T47D [1]; 1 μM): accumulation of T47D cells in the G2/M phase; also recorded: an increase in the G2/M (M4); sub-G1 / sub-diploid DNA content of cells (M1) (T47D [1]; 1 μM): increase substantially over control cells; IC50 (HeLa cells): ~0.1 µM
2 | 345 | 133 | O=C(Nc1ccc(OCc2ccccc2)cc1[N+](=O)[O-])c1ccc(Cl)nc1 [Example 25, 6-Chloro-N-(4-benzyloxy-2-nitrophenyl)-3-pyridinecarboxamide] | 5.8 | 6.6 | –
3 | 42 | 20 | CCOc1ccc(NC(=O)c2ccc(C)nc2)c([N+](=O)[O-])c1 [Example 26, 6-Methyl-N-(4-ethoxy-2-nitrophenyl)-3-pyridinecarboxamide] | 5.5 | 3.2 | –
4 | – | – | Cc1cc(NC(=O)c2ccc(Cl)nc2)c([N+](=O)[O-])cc1C [Example 27, 6-Chloro-N-(4,5-dimethyl-2-nitrophenyl)-3-pyridinecarboxamide] | Inactive | Inactive | EC50 (nM) caspase potency (T47D [2]): Inactive; EC50 (nM) caspase potency (ZR75-1; 24 h incubation): Inactive
5 | – | – | COc1ccc(NC(=O)c2ccc(Cl)[n+]([O-])c2)c([N+](=O)[O-])c1 [Example 28, 6-Chloro-N-(4-methoxy-2-nitrophenyl)-1-N-oxide-3-pyridinecarboxamide] | 2.4 | 5.1 | EC50 (T47D [2]): 7330 nM; EC50 (ZR75-1; 24 h incubation): 4510 nM
6 | 1800 | 1000 | COc1ccc(NC(=O)c2cccnc2)c([N+](=O)[O-])c1 [Example 29, N-(4-Methoxy-2-nitrophenyl)-3-pyridinecarboxamide] | 5.8 | 6.4 | G1 (M2) cells (T47D [1]; 10 μM): a reduction in the G1(M2); G2/M DNA content (M4) cells (T47D [1]; 10 μM): increase in G2/M DNA content; also recorded: an increase in the G2/M (M4); sub-diploid DNA content of cells (M1), in words (T47D [1]; 10 μM): increase; sub-diploid DNA content of cells (M1) (T47D [1]; 10 μM, control 2%): 25%; Nuclear fragmentation (nuclear morphology) (Jurkat cells [3]): shrunken and fragmented nuclei; Mitotic arrest (Jurkat cells [4]): effective inducer of mitotic arrest; also recorded: increasing percent of mitotic arrest with increasing drug concentration
7 | – | – | CCOc1ccc(N(C)C(=O)c2ccc(Cl)nc2)c([N+](=O)[O-])c1 [Example 30, 6-Chloro-N-(4-ethoxy-2-nitrophenyl)-N-methyl-3-pyridinecarboxamide] | Inactive | Inactive | EC50 (nM) caspase potency (T47D [2]): Inactive; EC50 (nM) caspase potency (ZR75-1; 24 h incubation): Inactive
